{
  "source": "patent US7514592B2",
  "about": "“Inducible heart attack animal model” (Massachusetts Institute of Technology, priority 2004, dated 2009)",
  "origin": "cited, not measured here",
  "system": "SR-BI knockout females",
  "conditions": "homozygous SR-BI knockout dams (infertile); administered during the breeding protocol",
  "data": [
    {"molecule": "CC(C)(Sc1cc(C(C)(C)C)c(O)c(C(C)(C)C)c1)Sc1cc(C(C)(C)C)c(O)c(C(C)(C)C)c1", "note": "[probucol]", "values": [
      {"measurement": "fertility in SR-BI knockout females", "result": "restore fertility"}
    ]}
  ]
}
